Active and inactive are the calls of the source. How the calls were made is not given here.
The compounds below were run against Perilipin-5 (Homo sapiens) + 1-acylglycerol-3-phosphate O-acyltransferase ABHD5 (Homo sapiens) (UniProt Q00G26+Q8WTS1) (assay: blockers of ABHD5 binding to perilipin-5 – biochemical, luminescence, dose response (AID 651677)). Details: ABHD5-PLIN5 interaction.
Chain of Perilipin-5 (Homo sapiens) + 1-acylglycerol-3-phosphate O-acyltransferase ABHD5 (Homo sapiens) (Q00G26 whole entry, looked up): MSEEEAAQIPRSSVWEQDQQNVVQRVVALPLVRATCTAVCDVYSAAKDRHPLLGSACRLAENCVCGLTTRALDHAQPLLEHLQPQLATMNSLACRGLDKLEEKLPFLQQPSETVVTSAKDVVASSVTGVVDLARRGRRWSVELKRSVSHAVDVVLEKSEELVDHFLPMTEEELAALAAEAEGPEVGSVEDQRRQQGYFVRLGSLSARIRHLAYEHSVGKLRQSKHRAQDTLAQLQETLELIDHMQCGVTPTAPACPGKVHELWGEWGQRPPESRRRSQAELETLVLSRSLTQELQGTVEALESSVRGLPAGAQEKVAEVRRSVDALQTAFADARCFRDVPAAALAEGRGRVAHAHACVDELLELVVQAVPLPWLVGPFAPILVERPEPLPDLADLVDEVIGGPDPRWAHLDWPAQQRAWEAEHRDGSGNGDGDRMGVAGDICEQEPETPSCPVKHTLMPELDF
Chain of Perilipin-5 (Homo sapiens) + 1-acylglycerol-3-phosphate O-acyltransferase ABHD5 (Homo sapiens) (Q8WTS1 whole entry, looked up): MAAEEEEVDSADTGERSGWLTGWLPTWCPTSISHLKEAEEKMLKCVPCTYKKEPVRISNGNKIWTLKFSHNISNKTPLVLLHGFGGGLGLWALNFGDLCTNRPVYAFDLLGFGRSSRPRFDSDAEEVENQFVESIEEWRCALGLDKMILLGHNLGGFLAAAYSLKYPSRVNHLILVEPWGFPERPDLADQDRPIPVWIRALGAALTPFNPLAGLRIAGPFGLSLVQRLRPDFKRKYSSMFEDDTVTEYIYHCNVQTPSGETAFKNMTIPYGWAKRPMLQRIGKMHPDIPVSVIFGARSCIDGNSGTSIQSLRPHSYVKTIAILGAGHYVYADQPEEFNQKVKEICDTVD
Compound `Cc1nc(-c2ccccc2)sc1C(=O)/C=C/c1ccccc1` has an IC50 of 2790 nM.
For `Oc1ccc2sc(-c3ccccc3O)c(-c3ccc(OCCN4CCCCC4)cc3)c2c1`, the IC50 was “inactive”.
`CC(C)c1nnc(NC(=O)c2nc(S(=O)(=O)Cc3ccc(F)cc3)ncc2Cl)s1` showed an IC50 of 1940 nM.
`CCC(C)NC(=O)Nc1ccc2c(c1)N(C)C(=O)c1ccccc1S2` (stereo not given) was tested, and the IC50 was 4970 nM.
With `CCCCn1c(SCC(=O)NCc2ccco2)nnc1-c1ccoc1C` the IC50 was 4820 nM.
For `CC(O)CC(=O)OC[C@]12CC[C@H]3[C@@](C)(CC[C@H]4C(C)(C)CCC[C@]34C)[C@@H]1CC(C1=CC(=O)OC1O)O2` (stereo not given in full), the IC50 was 857 nM.
With `C#CCN(C[C@@H]1[C@@H](OC(=O)NCCCCCC)[C@@H](OC(=O)NCCCCCC)Cn2c(=O)ccc(=O)n21)S(=O)(=O)c1ccc(C)cc1` the IC50 was 4740 nM.
Compound `COc1ccc(C(C(=O)NC2CCCCC2)n2c(=O)c(-c3ccco3)nc3ccccc32)cc1` (stereo not given) has an IC50 of 1140 nM.
`COC(=O)c1cc(=O)n(-c2ccc(F)cc2)c(=Nc2ccc(F)cc2)s1` gave an IC50 of 3090 nM.
`CN(C)CCCNC(=O)c1ccc(-c2nc(-c3ccc(Cl)cc3)cs2)cc1` was tested, and the IC50 was “inactive”.
Compound `CC(=O)OCC1=C(C(=O)O)N2C(=O)C(NC(=O)CCn3nc(C(F)(F)F)c(Br)c3C3CC3)C2SC1` (stereo not given) has an IC50 of 5240 nM.
`C#CCN(C[C@@H]1[C@@H](OC(=O)NCC2CCCCC2)[C@@H](OC(=O)NCC2CCCCC2)Cn2c(=O)ccc(=O)n21)S(=O)(=O)c1ccc(C)cc1` was tested, and the IC50 was 3600 nM.
Compound `O=C(NC1CCCCC1)C(c1cccc2ccccc12)n1c(=O)c(-c2ccco2)nc2ccccc21` (stereo not given) has an IC50 of 940 nM.
`O=C(Nc1ccc2c(c1)OCCO2)C(c1ccnc2ccccc12)n1c(=O)c(-c2ccco2)nc2ccccc21` (stereo not given) was tested, and the IC50 was “inactive”.
For `CC1CCN(S(=O)(=O)c2ccc(NC(=O)Cc3cccs3)cc2)CC1`, the IC50 was “inactive”.
`CCc1nnc(NC(=O)c2nc(S(=O)(=O)Cc3ccccc3)ncc2Cl)s1` gave an IC50 of 4140 nM.
With `CCCC(=O)NC(c1cccc([N+](=O)[O-])c1)c1ccc2cccnc2c1O` (stereo not given) the IC50 was > 39800 nM (inactive).
For `CCCCCNC(=O)C(c1cc2ccccc2o1)n1c(=O)c(-c2ccco2)nc2ccccc21` (stereo not given), the IC50 was 1160 nM.
`CC1=CC(C)(C)Nc2ccc(OC(=O)CN3C(=O)CCC3=O)cc21` gave an IC50 of 2200 nM.
Work on `CN1[C@@H]2CC[C@H]1CC(OC1c3ccccc3CCc3ccccc31)C2` (stereo not given in full) yielded an IC50 of 2490 nM.
In the case of `O=C(NC1CCCCC1)C(c1ccccc1)n1c(=O)c(-c2ccco2)nc2ccccc21` (stereo not given), the IC50 is reported as 670 nM.
With `CC(C)(C)NC(=O)C(c1cc2ccccc2o1)n1c(=O)c(-c2ccco2)nc2ccccc21` (stereo not given) the IC50 was 1550 nM.
Work on `COc1cc(/C=C/C(=O)c2ccc(Cl)s2)cc(OC)c1O` yielded an IC50 of 4480 nM.
`Cc1cc(C)c(C(CC(=O)c2cccs2)C(C#N)C#N)c(C)c1` (stereo not given) showed an IC50 of 8600 nM.
`COc1ccc(NC(=O)c2cc3ccccc3cc2O)cc1` was tested, and the IC50 was 9050 nM.
`COc1ccc(NC(=O)C(c2ccc(OC)cc2)n2c(=O)c(-c3ccco3)nc3ccccc32)cc1` (stereo not given) gave an IC50 of 6130 nM.
With `COc1ccc(/C=C\C(=O)CC(O)(c2ccccc2)C(F)(F)F)cc1` (stereo not given) the IC50 was 2890 nM.
`Cc1cccc(C)c1NC(=O)C(c1ccncc1)n1c(=O)c(-c2ccco2)nc2ccccc21` (stereo not given) was tested, and the IC50 was “inactive”.
Work on `CCOC1=CC2=C(C(=O)C(Cl)=CC2=O)[C@@H]2CN(S(=O)(=O)c3ccc(C)cc3)[C@@H](c3ccccc3)[C@H]12` yielded an IC50 of 941 nM.
Compound `Cc1nc2c(o1)CCc1ccccc1C2N1CCN(C)CC1` (stereo not given) has an IC50 of 8830 nM.
`CCCCCNC(=O)C(c1ccccc1F)n1c(=O)c(-c2ccco2)nc2ccccc21` (stereo not given) was tested, and the IC50 was 862 nM.
In the case of `COc1cc(C)c2sc3ccccc3c(=O)c2c1NCCN(C)C`, the IC50 is reported as 3840 nM.
`COCCNC(=O)/C(C#N)=C/c1cccc(/C=C(\C#N)C(=O)NCCOC)c1` showed an IC50 of 727 nM.
Compound `CSc1nnc(NC(=O)c2nc(S(=O)(=O)Cc3ccc(C)cc3)ncc2Cl)s1` has an IC50 of 2510 nM.
For `CCN(CCCc1ccccc1)CCCc1ccccc1`, the IC50 was 2660 nM.
